In patent US11725012B2, “Imidazo[1,5-a]pyrazine derivatives as PI3K δ inhibitors” (priority 2016, dated 2023) one finds IC50 and inhibition data, which are given here for 17 compounds.

What all share (type): biochemical
The target of assay [1] is recombinant PI3K (p110δ/p85α) (Homo sapiens, UniProt O00329). The assay can be described thus: PI3Kδ ADP-Glo kinase assay. The procedure: Compounds disclosed herein were tested for inhibition of PI3Kδ kinase activity using commercial ADP-Glo™ Kinase Assay (Promega Corporation) and following the manufacture's instruction. Briefly, recombinant PI3K (p110δ/p85α) enzyme, lipid kinase substrate and a serial dilution of compounds disclosed herein were incubated for 0.5 hr at room temperature. ATP was added to initiate the kinase reaction. After incubation for 1 hr at room temperature, ADP-Glo™ reagent was added to terminate the kinase reaction and deplete the remaining ATP. After incubation for 1 hr at room temperature, kinase detection reagent was added to simultaneously convert ADP to ATP and allow the newly synthesized ATP to be measured using a luciferase/luciferin reaction. After incubation for 0.5 hr at room temperature, the luminescence generated was measured on a PHERAstar FS plate reader (BMG LABTECH), The residual enzyme activity in presence of increasing concentrations of compounds was calculated based on the luminescence. The IC50 for each compound was derived from fitting the data to the four-parameter logistic equation by Graphpad Prism software.
recombinant PI3K (p110δ/p85α), sequence (O00329 whole entry): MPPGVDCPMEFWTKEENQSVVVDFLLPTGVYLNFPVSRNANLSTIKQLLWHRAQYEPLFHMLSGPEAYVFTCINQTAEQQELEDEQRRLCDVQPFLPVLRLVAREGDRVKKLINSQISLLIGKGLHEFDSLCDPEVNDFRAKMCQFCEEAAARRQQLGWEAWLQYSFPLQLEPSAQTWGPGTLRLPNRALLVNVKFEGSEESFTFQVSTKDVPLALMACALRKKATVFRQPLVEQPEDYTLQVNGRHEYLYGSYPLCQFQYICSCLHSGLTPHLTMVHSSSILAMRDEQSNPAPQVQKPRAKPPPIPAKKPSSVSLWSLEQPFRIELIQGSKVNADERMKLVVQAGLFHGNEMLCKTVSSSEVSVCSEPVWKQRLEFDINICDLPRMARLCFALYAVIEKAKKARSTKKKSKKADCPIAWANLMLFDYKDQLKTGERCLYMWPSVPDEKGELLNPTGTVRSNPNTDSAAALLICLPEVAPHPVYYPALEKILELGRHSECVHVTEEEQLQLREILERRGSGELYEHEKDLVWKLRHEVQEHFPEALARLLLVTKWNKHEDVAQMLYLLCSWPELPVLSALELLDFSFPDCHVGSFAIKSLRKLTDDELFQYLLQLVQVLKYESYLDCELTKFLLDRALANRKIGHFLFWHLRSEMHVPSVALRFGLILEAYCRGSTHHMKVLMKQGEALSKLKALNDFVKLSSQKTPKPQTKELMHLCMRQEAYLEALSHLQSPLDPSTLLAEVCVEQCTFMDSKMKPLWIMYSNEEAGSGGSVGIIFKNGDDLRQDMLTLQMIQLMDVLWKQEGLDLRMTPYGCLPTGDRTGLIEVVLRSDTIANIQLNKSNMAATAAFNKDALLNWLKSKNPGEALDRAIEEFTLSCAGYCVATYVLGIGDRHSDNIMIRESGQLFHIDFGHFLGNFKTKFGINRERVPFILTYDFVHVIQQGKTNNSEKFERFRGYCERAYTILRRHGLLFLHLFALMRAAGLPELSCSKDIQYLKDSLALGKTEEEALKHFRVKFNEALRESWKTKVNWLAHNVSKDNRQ
recombinant PI3K (p110δ/p85α), sequence (P27986 whole entry partner): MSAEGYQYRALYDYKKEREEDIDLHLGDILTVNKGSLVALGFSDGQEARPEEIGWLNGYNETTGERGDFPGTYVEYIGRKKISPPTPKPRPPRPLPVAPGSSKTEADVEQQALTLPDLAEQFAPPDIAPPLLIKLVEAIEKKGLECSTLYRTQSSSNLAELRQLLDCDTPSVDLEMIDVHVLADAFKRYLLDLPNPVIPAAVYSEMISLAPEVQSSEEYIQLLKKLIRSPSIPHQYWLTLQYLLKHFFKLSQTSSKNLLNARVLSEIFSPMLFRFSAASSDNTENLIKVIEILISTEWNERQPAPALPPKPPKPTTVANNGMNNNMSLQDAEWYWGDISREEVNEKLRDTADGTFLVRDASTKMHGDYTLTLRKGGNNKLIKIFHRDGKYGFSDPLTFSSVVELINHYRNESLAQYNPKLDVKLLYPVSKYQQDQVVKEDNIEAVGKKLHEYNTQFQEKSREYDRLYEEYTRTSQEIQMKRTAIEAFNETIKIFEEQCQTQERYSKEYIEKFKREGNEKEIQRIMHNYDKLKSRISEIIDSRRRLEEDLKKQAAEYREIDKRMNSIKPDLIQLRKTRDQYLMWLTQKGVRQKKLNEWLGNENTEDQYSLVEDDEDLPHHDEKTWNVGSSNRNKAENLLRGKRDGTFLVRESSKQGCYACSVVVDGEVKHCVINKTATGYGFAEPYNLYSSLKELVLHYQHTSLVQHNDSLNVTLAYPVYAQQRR
Background: ADP-Glo turns the ADP formed in a reaction into a luminescent signal.

Assay [2] has as its target recombinant PI3K (p110α/p85α) (Homo sapiens, UniProt P42336). The assay can be described thus: PI3Kα ADP-Glo kinase assay.
The next assay has as its target PI3K (p110β/p85α) (Homo sapiens, UniProt P42338). In words: PI3Kβ ADP-Glo kinase assay.
For another assay, the target named is PI3K (p110γ) (Homo sapiens, UniProt P48736). In words: PI3Kγ ADP-Glo kinase assay.
PI3K (p110γ), sequence (P48736 whole entry): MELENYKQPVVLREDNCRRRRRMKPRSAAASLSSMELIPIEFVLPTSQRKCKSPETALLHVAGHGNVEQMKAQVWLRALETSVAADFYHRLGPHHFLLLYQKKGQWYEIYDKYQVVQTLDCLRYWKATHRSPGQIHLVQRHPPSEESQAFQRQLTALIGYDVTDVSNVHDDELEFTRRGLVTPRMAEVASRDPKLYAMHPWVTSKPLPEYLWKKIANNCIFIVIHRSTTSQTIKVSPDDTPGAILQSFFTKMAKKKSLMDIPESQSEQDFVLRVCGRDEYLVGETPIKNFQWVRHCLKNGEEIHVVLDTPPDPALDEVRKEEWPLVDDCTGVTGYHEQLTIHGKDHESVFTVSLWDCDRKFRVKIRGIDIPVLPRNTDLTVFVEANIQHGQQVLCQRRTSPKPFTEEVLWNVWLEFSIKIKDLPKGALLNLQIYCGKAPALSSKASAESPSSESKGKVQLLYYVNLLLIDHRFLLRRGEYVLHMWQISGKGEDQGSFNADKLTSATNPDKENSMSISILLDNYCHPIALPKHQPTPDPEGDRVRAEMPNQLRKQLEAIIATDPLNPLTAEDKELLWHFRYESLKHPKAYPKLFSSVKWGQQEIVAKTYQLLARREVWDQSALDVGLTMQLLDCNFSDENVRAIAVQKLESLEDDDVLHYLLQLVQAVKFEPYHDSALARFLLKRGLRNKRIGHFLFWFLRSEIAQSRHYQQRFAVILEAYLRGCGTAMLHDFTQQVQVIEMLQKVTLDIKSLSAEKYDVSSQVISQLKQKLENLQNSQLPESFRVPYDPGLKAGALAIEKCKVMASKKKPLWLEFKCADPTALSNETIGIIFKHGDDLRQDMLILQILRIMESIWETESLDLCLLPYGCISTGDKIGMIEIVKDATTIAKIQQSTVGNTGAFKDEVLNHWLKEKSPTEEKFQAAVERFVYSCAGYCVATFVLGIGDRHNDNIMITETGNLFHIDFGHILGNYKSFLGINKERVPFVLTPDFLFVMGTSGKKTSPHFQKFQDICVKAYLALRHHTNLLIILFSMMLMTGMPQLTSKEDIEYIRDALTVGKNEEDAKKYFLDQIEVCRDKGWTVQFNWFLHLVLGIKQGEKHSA
The mark [3] stands for this setting: read-out: PI3Kδ Enzyme activity IC50.
[4] abbreviates: read-out: PI3Kα Enzyme activity IC50.
The mark [5] stands for this setting: read-out: PI3Kβ Enzyme activity IC50.
The mark [6] stands for this setting: read-out: PI3Kγ Enzyme activity IC50.

Like-named read-outs stand apart in the source and are kept apart here.

recombinant PI3K (p110α/p85α), sequence (P42336 whole entry): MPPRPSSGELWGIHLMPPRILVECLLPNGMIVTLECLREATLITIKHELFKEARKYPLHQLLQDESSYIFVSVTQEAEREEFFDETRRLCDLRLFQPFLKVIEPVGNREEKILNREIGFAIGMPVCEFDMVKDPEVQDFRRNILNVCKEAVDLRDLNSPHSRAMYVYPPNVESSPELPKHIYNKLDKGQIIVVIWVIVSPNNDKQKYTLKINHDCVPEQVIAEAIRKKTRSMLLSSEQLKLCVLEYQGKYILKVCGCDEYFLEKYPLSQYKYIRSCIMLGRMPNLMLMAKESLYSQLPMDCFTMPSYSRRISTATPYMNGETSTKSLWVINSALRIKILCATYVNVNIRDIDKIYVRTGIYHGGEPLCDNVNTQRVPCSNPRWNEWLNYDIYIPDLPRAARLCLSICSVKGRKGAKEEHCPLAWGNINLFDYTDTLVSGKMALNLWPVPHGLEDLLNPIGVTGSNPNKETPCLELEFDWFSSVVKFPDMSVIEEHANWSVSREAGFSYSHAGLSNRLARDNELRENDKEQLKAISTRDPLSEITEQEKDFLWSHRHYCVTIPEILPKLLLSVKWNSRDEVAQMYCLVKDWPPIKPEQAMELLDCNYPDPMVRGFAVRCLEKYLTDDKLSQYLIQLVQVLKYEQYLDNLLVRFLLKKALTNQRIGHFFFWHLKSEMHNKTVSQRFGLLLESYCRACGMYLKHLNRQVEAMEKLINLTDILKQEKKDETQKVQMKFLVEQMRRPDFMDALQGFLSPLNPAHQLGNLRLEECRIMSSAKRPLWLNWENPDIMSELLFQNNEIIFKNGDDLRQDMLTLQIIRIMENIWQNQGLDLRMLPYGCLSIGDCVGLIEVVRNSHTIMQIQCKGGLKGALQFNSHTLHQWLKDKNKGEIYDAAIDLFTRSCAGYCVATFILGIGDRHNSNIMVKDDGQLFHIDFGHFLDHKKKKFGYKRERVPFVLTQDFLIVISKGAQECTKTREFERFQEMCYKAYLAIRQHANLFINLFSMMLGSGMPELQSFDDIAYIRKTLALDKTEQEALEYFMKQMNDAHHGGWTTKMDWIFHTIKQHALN
recombinant PI3K (p110α/p85α), sequence (P27986 whole entry partner): as the sequence (P27986 whole entry partner) above
PI3K (p110β/p85α), sequence (P42338 whole entry): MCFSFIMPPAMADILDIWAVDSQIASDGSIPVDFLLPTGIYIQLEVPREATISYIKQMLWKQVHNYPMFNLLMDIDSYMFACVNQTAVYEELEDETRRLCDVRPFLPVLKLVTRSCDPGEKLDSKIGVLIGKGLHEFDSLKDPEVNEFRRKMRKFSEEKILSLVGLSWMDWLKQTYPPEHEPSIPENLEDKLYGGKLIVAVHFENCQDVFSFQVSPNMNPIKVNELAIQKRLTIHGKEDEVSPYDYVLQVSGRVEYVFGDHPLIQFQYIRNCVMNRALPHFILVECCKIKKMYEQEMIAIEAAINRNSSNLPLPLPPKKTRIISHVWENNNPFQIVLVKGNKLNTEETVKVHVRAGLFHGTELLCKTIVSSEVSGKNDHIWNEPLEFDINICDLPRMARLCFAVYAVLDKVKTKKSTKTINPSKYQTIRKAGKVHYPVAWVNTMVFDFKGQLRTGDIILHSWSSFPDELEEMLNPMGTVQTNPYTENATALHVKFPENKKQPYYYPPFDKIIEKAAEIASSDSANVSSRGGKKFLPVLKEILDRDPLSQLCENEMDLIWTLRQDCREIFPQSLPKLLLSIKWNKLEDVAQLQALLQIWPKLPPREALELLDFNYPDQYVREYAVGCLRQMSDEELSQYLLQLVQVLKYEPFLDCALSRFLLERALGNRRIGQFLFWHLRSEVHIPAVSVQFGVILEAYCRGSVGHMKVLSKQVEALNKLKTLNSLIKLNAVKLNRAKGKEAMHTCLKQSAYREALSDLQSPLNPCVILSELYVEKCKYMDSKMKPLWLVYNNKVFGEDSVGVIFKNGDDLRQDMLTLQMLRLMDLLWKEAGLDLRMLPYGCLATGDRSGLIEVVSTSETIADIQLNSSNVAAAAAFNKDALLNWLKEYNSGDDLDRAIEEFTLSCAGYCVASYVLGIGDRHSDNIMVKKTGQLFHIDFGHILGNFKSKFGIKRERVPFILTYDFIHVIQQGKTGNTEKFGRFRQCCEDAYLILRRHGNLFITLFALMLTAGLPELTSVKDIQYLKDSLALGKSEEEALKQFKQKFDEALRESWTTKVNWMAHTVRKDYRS
PI3K (p110β/p85α), sequence (P27986 whole entry partner): as the sequence (P27986 whole entry partner) above

For the compound `COc1c(C(C)c2nc(Br)c3c(N)nccn23)cc(Cl)c(C)c1-c1ccc(N2CCOCC2)nc1` (centres unmarked) [Compound 23, 1-bromo-3-(1-(5-chloro-2-methoxy-4-methyl-3-(6-morpholinopyridin-3-yl)phenyl)ethyl)imidazo[1,5-a]pyrazin-8-amine], the IC50 – broadly, the point on the concentration scale where inhibition reaches its midpoint – in assay [1] (setting [3]) was 15 nM. Also, the inhibition (as a rule, the drop in the measured response relative to a control, in per cent) at 0.5 µM in assay [2] (read-out: PI3Kα max inhibition (%) at 0.5 μM) was 16%; on PI3K (p110β/p85α) (read-out: PI3Kβ max inhibition (%) at 0.5 μM) it was 12%; at PI3K (p110γ) (read-out: PI3Kγ max inhibition (%) at 0.5 μM), -19%.
For `CCOc1c(C(C)c2nc(Br)c3c(N)nccn23)cc(Cl)c(C)c1-c1ccc(C(F)(F)F)nc1` (centres unmarked) [Compound 24, 1-bromo-3-(1-(5-chloro-2-ethoxy-4-methyl-3-(6-(trifluoromethyl)pyridin-3-yl)phenyl)ethyl)imidazo[1,5-a]pyrazin-8-amine], the half-maximal inhibitory concentration (IC50) in assay [1] (setting [3]) stood at 2.9 nM; in assay [2] (setting [4]), 4000 nM; at PI3K (p110β/p85α) (setting [5]), 1600 nM; on PI3K (p110γ) (setting [6]), 2100 nM.
As to `CCOc1c(C(C)c2nc(Cl)c3c(N)nccn23)cc(Cl)c(C)c1-c1ccc(C(F)(F)F)nc1` (centres unmarked) [Compound 25, 1-chloro-3-(1-(5-chloro-2-ethoxy-4-methyl-3-(6-(trifluoromethyl)pyridin-3-yl)phenyl)ethyl)imidazo[1,5-a]pyrazin-8-amine], the IC50 in assay [1] (setting [3]) was 2.6 nM; in assay [2] (setting [4]), 3000 nM; on PI3K (p110β/p85α) (setting [5]), 2600 nM; on PI3K (p110γ) (setting [6]) it was 1400 nM.
Taken in the same sequence, the figures for `CCOc1c(C(C)c2nc(Br)c3c(N)nccn23)cc(Cl)c(C)c1-c1ccc(Cl)nc1` (centres unmarked) [Compound 26, 1-bromo-3-(1-(5-chloro-3-(6-chloropyridin-3-yl)-2-ethoxy-4-methylphenyl)ethyl) imidazo[1,5-a]pyrazin-8-amine] were 1.4 nM, 1500 nM, 330 nM and 500 nM.
Taken in the same sequence, the figures for `CCOc1c(C(C)c2nc(Cl)c3c(N)nccn23)cc(Cl)c(C)c1-c1ccc(Cl)nc1` (centres unmarked) [Compound 27, 1-chloro-3-(1-(5-chloro-3-(6-chloropyridin-3-yl)-2-ethoxy-4-methylphenyl)ethyl)imidazo[1,5-a]pyrazin-8-amine] were 2.5 nM, 3300 nM, 1800 nM and 1400 nM.
Taken in the same sequence, the figures for `CCOc1c([C@H](C)c2nc(Cl)c3c(N)nccn23)cc(Cl)c(C)c1-c1ccc(Cl)nc1` [Compound 27A] were 1.1 nM, 2200 nM, 400 nM and 1000 nM.
Regarding `CCOc1c(C(C)c2nc(Br)c3c(N)nccn23)cc(Cl)c(C)c1-c1ccc(OC)nc1` (stereo not drawn) [Compound 28, 1-bromo-3-(l-(5-chloro-2-ethoxy-3-(6-methoxypyridin-3-yl)-4-methylphenyl)ethyl)imidazo[1,5-a]pyrazin-8-amine], the IC50 in assay [1] (PI3Kδ Enzyme activity IC50) was found to be 3.2 nM; in assay [2] (PI3Kα Enzyme activity IC50), 2300 nM; against PI3K (p110β/p85α) (PI3Kβ Enzyme activity IC50) it was 930 nM; against PI3K (p110γ) (PI3Kγ Enzyme activity IC50), 740 nM.
Consider `CCOc1c(C(C)c2nc(Cl)c3c(N)nccn23)cc(Cl)c(C)c1-c1ccc(OC)nc1` (centres unmarked) [Compound 29, 1-chloro-3-(1-(5-chloro-2-ethoxy-3-(6-methoxypyridin-3-yl)-4-methylphenyl)ethyl)imidazo[1,5-a]pyrazin-8-amine], for which the IC50 was found to be 2.1 nM in assay [1] (setting [3]), 2900 nM in assay [2] (setting [4]), 820 nM at PI3K (p110β/p85α) (setting [5]) and 1100 nM on PI3K (p110γ) (setting [6]).
The matching figures for `CCOc1c(C(C)c2nc(Br)c3c(N)nccn23)cc(Cl)c(C)c1-c1ccc(OCCOC)nc1` (centres unmarked) [Compound 30, 1-bromo-3-(1-(5-chloro-2-ethoxy-3-(6-(2-methoxyethoxy)pyridin-3-yl)-4-methylphenyl)ethyl)imidazo[1,5-a]pyrazin-8-amine]: 2.3 nM, 1800 nM, 530 nM and 450 nM.
Taken in the same sequence, the figures for `CCOc1c(C(C)c2nc(Cl)c3c(N)nccn23)cc(Cl)c(C)c1-c1ccc(OCCOC)nc1` (centres unmarked) [Compound 31, 1-chloro-3-(1-(5-chloro-2-ethoxy-3-(6-(2-methoxyethoxy)pyridin-3-yl)-4-methylphenyl)ethyl)imidazo[1,5-a]pyrazin-8-amine] were 2.5 nM, 2200 nM, 620 nM and 430 nM.
Taken in the same sequence, the figures for `CCOc1c(C(C)c2nc(C)c3c(N)nccn23)cc(Cl)c(C)c1-c1ccc(C(F)(F)F)nc1` (centres unmarked) [Compound 32, 3-(1-(5-chloro-2-ethoxy-4-methyl-3-(6-(trifluoromethyl)pyridin-3-yl)phenyl)ethyl)-1-methylimidazo[1,5-a]pyrazin-8-amine] were 8.5 nM, 7400 nM, 3500 nM and 2100 nM.
In the case of `CCOc1c(C(C)c2nc(Cl)c3c(N)nccn23)cc(F)c(Cl)c1-c1ccc(C(F)(F)F)nc1` (centres unmarked) [Compound 33, 1-chloro-3-(1-(4-chloro-2-ethoxy-5-fluoro-3-(6-(trifluoromethyl)pyridin-3-yl)phenyl)ethyl)imidazo[1,5-a]pyrazin-8-amine], the IC50 is 5.7 nM in assay [1] (setting [3]), 1800 nM in assay [2] (setting [4]), 1800 nM on PI3K (p110β/p85α) (setting [5]) and 750 nM on PI3K (p110γ) (setting [6]).
As for `CC(C)Oc1c(C(C)c2nc(Cl)c3c(N)nccn23)cc(F)c(Cl)c1-c1ccc(C(F)(F)F)nc1` (centres unmarked) [Compound 35, 1-chloro-3-(1-(4-chloro-5-fluoro-2-isopropoxy-3-(6-(trifluoromethyl)pyridin-3-yl)phenyl)ethyl)imidazo[1,5-a]pyrazin-8-amine], the IC50 worked out at 11 nM in assay [1] (setting [3]), 23000 nM in assay [2] (setting [4]), 79000 nM on PI3K (p110β/p85α) (setting [5]) and 5900 nM at PI3K (p110γ) (setting [6]).
In the case of `CCOc1c(C(C)c2nc(Cl)c3c(N)nccn23)cc(Cl)c(Cl)c1-c1ccc(C(F)(F)F)nc1` (centres unmarked) [Compound 36, 1-chloro-3-(1-(4,5-dichloro-2-ethoxy-3-(6-(trifluoromethyl)pyridin-3-yl)phenyl)ethyl)imidazo[1,5-a]pyrazin-8-amine], the half-inhibitory concentration (IC50) in assay [1] (setting [3]) came out at 2.2 nM; in assay [2] (setting [4]), 1300 nM; at PI3K (p110β/p85α) (setting [5]), 580 nM; on PI3K (p110γ) (setting [6]), 730 nM.
Taken in the same sequence, the figures for `CC(C)Oc1c(C(C)c2nc(Cl)c3c(N)nccn23)cc(Cl)c(Cl)c1-c1ccc(C(F)(F)F)nc1` (centres unmarked) [Compound 37, 1-chloro-3-(1-(4,5-dichloro-2-isopropoxy-3-(6-(trifluoromethyl)pyridin-3-yl)phenyl)ethyl)imidazo[1,5-a]pyrazin-amine] were 4.2 nM, 11000 nM, 1900 nM and 900 nM.
Taken in the same sequence, the figures for `Cc1c(Cl)cc(C(C)c2nc(Br)c3c(N)nccn23)c(OC(C)C)c1-c1ccc(C(F)(F)F)nc1` (centres unmarked) [Compound 38, 1-bromo-3-(1-(5-chloro-2-isopropoxy-4-methyl-3-(6-(trifluoromethyl)pyridin-3-yl)phenyl)ethyl)imidazo[1,5-a]pyrazin-8-amine] were 19 nM, more than 200000 nM, 30000 nM and 2800 nM.
Taken in the same sequence, the figures for `Cc1c(Cl)cc([C@H](C)c2nc(Br)c3c(N)nccn23)c(OC(C)C)c1-c1ccc(C(F)(F)F)nc1` [Compound 38A] were 5.4 nM, more than 200000 nM, 28000 nM and 740 nM.
